Values quoted from earlier work, collected in US20140255503A1, “PHARMACEUTICAL COMPOSITION OF OMEPRAZOLE” (LABORATORIOS DEL DR. ESTEVE, S.A., priority 2011, published 2014).

Experiments:
[1] = not given; remark: listed apart in the source

- Solubility in acetone (acetone): slightly soluble
- Solubility in ethanol (ethanol): freely soluble
- Solubility in isopropanol (isopropanol): slightly soluble
- Solubility in methanol (methanol): freely soluble
- Solubility in water (water): very slightly soluble
- Stability in acid media ([1]; acid media): rapidly degraded
- Stability under alkaline conditions ([1]; alkaline conditions): acceptable stability
Compound: COc1ccc2[nH]c([S+]([O-])Cc3ncc(C)c(OC)c3C)nc2c1 (stereo not shown) [Omeprazole, 5-methoxy-2-(4-methoxy-3,5-dimethylpyridin-2-ylmethylsulfinyl)-1H-benzimidazole]
